Assay results reported in US10399995B2, “1,4-Oxazines useful as selective BACE1 inhibitors” (Eli Lilly and Company, priority 2016, dated 2019).
Read-outs that look alike come from different tables or passages of the source.

Columns and labels:
Human BACE1(1-460):Fc = molecular target: T1, Human BACE1(1-460):Fc (Homo sapiens, UniProt P56817); assay: BACE1 FRET Assay; type: biochemical; conditions: purified recombinant huBACE1:Fc, pH 4.6, mean ± standard deviation of the mean, n=13
T1 construct: made in house; host or cells: HEK293 (transient transfection, purified from conditioned media by Protein A)
T1 sequence (P56817 22-460): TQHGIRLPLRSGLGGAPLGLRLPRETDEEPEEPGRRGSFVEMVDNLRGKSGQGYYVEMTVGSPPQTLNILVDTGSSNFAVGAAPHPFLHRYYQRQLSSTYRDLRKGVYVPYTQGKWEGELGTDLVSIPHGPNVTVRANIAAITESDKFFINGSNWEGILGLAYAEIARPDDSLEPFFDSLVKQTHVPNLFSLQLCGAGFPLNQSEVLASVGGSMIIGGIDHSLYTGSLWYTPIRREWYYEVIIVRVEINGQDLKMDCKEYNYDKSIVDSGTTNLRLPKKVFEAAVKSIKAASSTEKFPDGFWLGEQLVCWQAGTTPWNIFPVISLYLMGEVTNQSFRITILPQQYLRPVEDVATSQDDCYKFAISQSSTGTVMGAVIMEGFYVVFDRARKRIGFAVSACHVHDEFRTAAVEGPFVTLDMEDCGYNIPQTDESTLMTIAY
Method: (§1) To assess selectivity of BACE1 over BACE2, the test compound is evaluated in FRET assays using specific substrates for BACE1 and BACE2 as described below. For in vitro enzymatic and cellular assays, the test compound is prepared in DMSO to make up a 10 mM stock solution. The stock solution is serially diluted in DMSO to obtain a ten-point dilution curve with final compound concentrations ranging from 10 μM to 0.05 nM in a 96-well round-bottom plate before conducting the in vitro enzymatic and whole cell assays.
(§2) Human BACE1 (accession number: AF190725) and human BACE2 (accession number: AF 204944) are cloned from total brain cDNA by RT-PCR. The nucleotide sequences corresponding to amino acid sequences #1 to 460 are inserted into the cDNA encoding human IgG1 (Fc) polypeptide (Vassar et al., Science, 286, 735-742 (1999)). […]
(§3) Conditioned media of HEK293 cells transiently transfected with huBACE1:Fc or huBACE2:Fc cDNA are collected. […] The purity of the final product is assessed by electrophoresis in 4-20% Tris-Glycine SDS-PAGE. […]
Serial dilutions of the test compound are prepared as described above. […] The RFU of the mixture at time 0 is recorded at excitation wavelength 355 nm and emission wavelength 460 nm, after brief mixing on a plate shaker. […] The RFU at the end of incubation is recorded with the same excitation and emission settings used at time 0. […]

human BACE2 (1-460):Fc = molecular target: T2, human BACE2 (1-460):Fc (Homo sapiens, UniProt Q9Y5Z0); assay: BACE2 TMEM27 FRET Assay; type: biochemical
T2 construct: made in house; host or cells: HEK293 (transient transfection, purified from conditioned media by Protein A)
T2 sequence (Q9Y5Z0 21-460): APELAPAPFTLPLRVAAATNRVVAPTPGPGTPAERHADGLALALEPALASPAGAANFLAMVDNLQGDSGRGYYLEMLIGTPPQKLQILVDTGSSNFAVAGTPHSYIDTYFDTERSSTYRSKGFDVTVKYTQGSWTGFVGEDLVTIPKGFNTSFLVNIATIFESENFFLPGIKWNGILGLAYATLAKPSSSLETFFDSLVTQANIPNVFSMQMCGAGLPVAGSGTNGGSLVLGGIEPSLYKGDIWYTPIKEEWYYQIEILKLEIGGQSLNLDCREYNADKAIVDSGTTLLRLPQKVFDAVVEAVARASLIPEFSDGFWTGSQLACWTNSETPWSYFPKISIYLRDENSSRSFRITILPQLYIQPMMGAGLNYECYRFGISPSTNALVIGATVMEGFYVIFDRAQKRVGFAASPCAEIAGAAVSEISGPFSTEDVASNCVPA
Method: as §1, §2, §3
Serial dilutions of test compound are prepared as described above. […] The RFU of the mixture at time 0 is recorded at excitation wavelength 430 nm and emission wavelength 535 nm. […] The RFU at the end of incubation is recorded with the same excitation and emission settings used at time 0. […]

BACE1 = molecular target: T3, BACE1 (Homo sapiens, UniProt P56817); assay: SH-SY5YAPP695Wt Whole Cell Assay; type: cell-based; conditions: SH-SY5Y cells expressing human APP695Wt, 24 hours, conditioned media, mean ± standard deviation of the mean, n=3
T3 construct: endogenous in cells; host or cells: SH-SY5Y (ATCC CRL2266) stably expressing human APP695Wt
T3 sequence (P56817 46-501): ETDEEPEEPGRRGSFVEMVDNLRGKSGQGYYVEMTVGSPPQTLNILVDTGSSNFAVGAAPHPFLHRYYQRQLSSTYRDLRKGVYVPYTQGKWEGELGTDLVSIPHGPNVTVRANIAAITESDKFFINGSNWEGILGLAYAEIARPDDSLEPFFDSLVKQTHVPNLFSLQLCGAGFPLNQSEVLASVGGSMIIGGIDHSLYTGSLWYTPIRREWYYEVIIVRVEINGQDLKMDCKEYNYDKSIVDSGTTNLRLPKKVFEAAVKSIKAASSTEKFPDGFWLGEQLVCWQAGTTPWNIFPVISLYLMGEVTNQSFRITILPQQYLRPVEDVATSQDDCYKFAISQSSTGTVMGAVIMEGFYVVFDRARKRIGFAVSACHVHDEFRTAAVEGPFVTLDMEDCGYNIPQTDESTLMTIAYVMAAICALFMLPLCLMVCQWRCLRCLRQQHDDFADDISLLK
Method: as §1
The routine whole cell assay for the measurement of inhibition of BACE1 activity utilizes the human neuroblastoma cell line SH-SY5Y (ATCC Accession No. CRL2266) stably expressing a human APP695Wt cDNA. Cells are routinely used up to passage number 6 and then discarded.
SH-SY5YAPP695Wt cells are plated in 96 well tissue culture plates at 5.0×10^4 cells/well in 200 μL culture media (50% MEM/EBSS and Ham's F12, 1× each sodium pyruvate, non-essential amino acids and NaHCO3 containing 10% FBS). The following day, media is removed from the cells, fresh media added then incubated at 37° C. for 24 hours in the presenceabsence of test compound at the desired concentration range.
At the end of the incubation, conditioned media are analyzed for evidence of beta-secretase activity by analysis of Abeta peptides 1-40 and 1-42 by specific sandwich ELISAs. […]

IC50 (Human BACE1(1-460):Fc): 8.18 nM
IC50 (human BACE2 (1-460):Fc; TMEM27 LucY FRET assay, huBACE2:Fc, pH 4.6, mean ± standard deviation of the mean, n=6): 446 nM
ratio of BACE1 (FRET IC50 enzyme assay) to BACE2 (TMEM27 LucY FRET assay) (human BACE2 (1-460):Fc; selectivity for BACE1 over BACE2): approximately 50 fold
IC50 (BACE1; read-out: IC50 for SH-SY5YAPP695Wt A-beta (1-40) ELISA): 1.88 nM
IC50 (BACE1; read-out: IC50 for SH-SY5YAPP695Wt A-beta (1-42) ELISA): 3.55 nM
Compound: C[C@@]1(c2cc(NC(=O)c3nc4ccc(C#N)nc4s3)ccc2F)CO[C@@](C)(C(F)(F)F)C(N)=N1 [Example 1, N-[3-[(3R,6R)-5-Amino-3,6-dimethyl-6-(trifluoromethyl)-2H-1,4-oxazin-3-yl]-4-fluoro-phenyl]-5-cyano-thiazolo[5,4-b]pyridine-2-carboxamide]
